Laboratory results: PubChem BioAssay (NCI)
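Each compound was tested at five concentrations against cells in 96-well plates for 48 hours. Here, GI50 denotes the concentration required for 50% inhibition of growth. TGI: total growth inhibition.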

Columns and labels:
Assay in all cases: NCI tumour cell line growth inhibition, 48 h
[1] = tested on: MDA-MB-435
[2] = tested on: U251 CNS
[3] = tested on: SK-OV-3 ovarian
[4] = tested on: NCI-H460 lung
[5] = tested on: SK-MEL-28 melanoma
[6] = tested on: MCF7 breast
[7] = tested on: ACHN renal
[8] = tested on: SNB-19 CNS
[9] = tested on: RXF 393 renal
[10] = tested on: NCI-H226 lung

Row | Structure (SMILES) | GI50 [1] [µM] | TGI [1] [µM] | GI50 [2] [µM] | TGI [2] [µM] | GI50 [3] [µM] | TGI [3] [µM] | GI50 [4] [µM] | TGI [4] [µM] | GI50 [5] [µM] | TGI [5] [µM] | GI50 [6] [µM] | TGI [6] [µM] | GI50 [7] [µM] | TGI [7] [µM] | GI50 [8] [µM] | TGI [8] [µM] | GI50 [9] [µM] | TGI [9] [µM] | GI50 [10] [µM] | TGI [10] [µM]
1 | Clc1c(Cl)[n+](Cc2ccc3ccccc3c2)cn1Cc1ccc2ccccc2c1 | 1.24 | 2.64 | 1.53 | 2.94 | 1.39 | 3.75 | 1.53 | 2.98 | 1.63 | 3.04 | 1.32 | 2.88 | 1.92 | 3.66 | 1.32 | 2.7 | 1.63 | 3.1 |  | 
2 | C[C@@H](Oc1cc(-n2cnc3ccc(OC4CCN(C)CC4)cc32)sc1C(N)=O)c1ccccc1Cl | 0.00549 | 0.0159 | 0.0155 | 4.13 | 0.0216 | 2.8 | 0.0126 | 3.19 |  |  | 0.00884 | 3.92 | 0.212 | 9.19 | 0.07 | 13.2 | 0.0112 | 3.53 | 0.289 | 5.49
3 | CCCCCCCCCCCCCCCC1=NCC[N+]1(CCO)CCO | 2.1 | 4.4 | 1.64 | 3.03 | 4.3 | 15.9 | 1.84 | 3.47 | 5.1 | 16.8 | 3.46 | 14 | 2.53 | 6.64 | 3.8 | 15.9 | 2.47 | 6.28 | 3.17 | 12.3
4 | CNC(=O)c1ccc(N2C(=S)N(c3cnc(C#N)c(C(F)(F)F)c3)C(=O)C23CCC3)cc1F | > 100 | > 100 | > 100 | > 100 | > 100 | > 100 | > 100 | > 100 | > 100 | > 100 | 99.8 | > 100 | > 100 | > 100 | > 100 | > 100 | > 44.8 | > 100 | > 100 | > 100
5 | O=C(O)CSc1n[nH]c(=O)[nH]c1=O |  | > 100 |  | > 100 |  | > 100 |  | > 100 |  | > 100 |  | > 100 |  | > 100 |  | > 100 |  | > 100 |  | > 100
6 | COc1ccc(C2(Cl)c3ccccc3N(c3ccccc3)c3ccccc32)cc1 | 0.242 | 1.56 | 0.0505 | 1.29 | 0.495 | 2.74 | 0.484 | 1.94 | 0.222 | 1.49 | 0.182 | 1.9 | 0.598 | 10.1 | 0.637 | 2.43 | 0.718 | 2.56 | 1.01 | 3.55
7 | CCOC(=O)C1=CCCC[C@H]1S(=O)(=O)Nc1ccc(F)cc1Cl | 21.1 | 69.9 | 24.7 | > 100 | 47.6 | > 100 | 22.4 | 82.1 | 28 | > 100 | 19.9 | > 100 | 29 | > 100 | 29.4 | > 100 | 13.2 | 61.9 | 26.7 | > 100
8 | COc1ccccc1Nc1cc(O)c2c(=O)cc(-c3ccccc3)oc2c1 | 0.36 | 2.03 | 3.63 | > 100 | 3.57 | 17.9 | 3.37 | 12 | 3.64 | 25.8 | 1.63 | > 100 | 3.38 | 13 | 2.99 | 15.7 | 1.74 | 5.34 | 4.38 | 28.8
9 | Oc1c(Cl)cc(Cl)c(Cl)c1CNCCNCc1c(O)c(Cl)cc(Cl)c1Cl | 1.58 | 9.87 | 0.556 | 6.61 | 1.48 | 7.7 | 0.44 | 7.52 | 1.02 | 8.64 | 1.12 | 14.5 | 0.549 | 7.22 | 1.49 | 11.3 | 1.41 | 6.74 | 4.1 | 18.1
10 | Cc1onc(-c2ccccc2)c1C(=O)N/N=C/c1cc(Cl)cc(Cl)c1O | 6.39 | > 100 | 3.19 | 57.6 | 7.82 | 50.7 | 3.6 | > 100 | 6.51 | > 100 | 3.18 | > 100 | 2.67 | > 100 | 4.12 | > 100 | 7.72 | > 100 | 8.47 | 72.7
11 | O=C1N[C@@H]2[C@@H](O)[C@@H](O)[C@H](O)C[C@H]2c2cc3c(c(O)c21)OCCO3 | 0.269 | 1.22 | 0.238 | 8.42 | 0.496 | 4.03 | 0.157 | 1.13 | 0.274 | 1.23 | 0.154 | 0.796 | 0.306 | 1.46 | 0.179 | 1.02 | 0.264 | 1.11 | 0.273 | 1.08
12 | COc1ccc2c(c1)C(=O)c1c-2n(CCCN(C)C)c(=O)c2ccccc12 | 0.557 | 3.27 | 0.197 | 3.68 | 0.382 | 3.14 | 0.0517 | 0.454 | 1.77 | 8.12 | 0.0295 | 2.31 | 0.116 | 0.503 | 0.264 | 3.4 | 0.53 | 2.34 | 0.413 | 2.59
13 | Cc1c(-c2cnccn2)ssc1=S |  | > 100 |  | > 100 |  | 93 |  | > 100 |  | > 100 |  | > 100 |  | > 100 |  | > 100 |  | 80.9 |  | > 100
14 | CN(Cc1ccccc1)Cn1ccnc1 |  | > 100 |  | > 100 |  | > 100 |  | > 80.6 |  | > 68 |  | > 100 |  | > 100 |  | > 100 |  | > 100 |  | > 100
15 | O=C1NC(=C(Cl)Cl)/C(=N/S(=O)(=O)N2CCCCC2)N1 | 1.98 | 4.21 | 1.71 | 3.12 | 15.4 | 28.8 | 3.27 | 11.2 | 1.92 | 3.56 | 2.87 | > 100 | 1.96 | 3.42 | 2.38 | 5.34 | 1.84 | 3.39 | 3.37 | 14.9
16 | OCC1C(OCc2ccccc2)C(OCc2ccccc2)C(OCc2ccccc2)CN1Cc1ccccc1 (configuration not stated) |  | > 100 |  | > 100 |  | > 100 |  | 48.1 |  | > 100 |  | 43.9 |  | 17.9 |  | > 100 |  | 48.4 |  | > 100
17 | COc1c/c(=C2\C=c3ccccc3=N2)[nH]/c1=C\c1[nH]c(C)cc1C | 0.0136 | 0.0951 | < 0.0337 | 6.28 | 1.54 | > 88.7 | 0.0268 | > 100 | 0.103 | 26.3 | 0.0464 | > 100 | < 0.0224 | 2.33 | 2.99 | > 88.7 | 0.538 | > 100 | 16.5 | > 100
18 | Cc1cc2c(C(=O)NC[C@H](C)c3ccccc3)c(O)c(O)cc2c(O)c1-c1c(C)cc2c(C(=O)NC[C@H](C)c3ccccc3)c(O)c(O)cc2c1O | 0.232 | 4.79 | 0.074 | 1.67 | 0.431 | 2.8 | 0.0334 | 0.388 | 0.437 | 4.41 | 0.0685 | 4.2 | 0.296 | 3.83 | 0.0605 | 4.3 | 0.197 | 0.895 | 0.244 | 0.987
19 | CN[C@H]1CN(c2ccc3c(=O)c(C(=O)O)cn(-c4nccs4)c3n2)C[C@@H]1OC | 1.29 | 3.51 | 0.42 | 7.23 | 1.08 | 5.29 | 0.133 | 1.53 | 1.31 | 3.01 | 0.358 | 5.07 |  |  | 0.376 | 14.2 | 1.16 | 3.63 | 0.632 | 3.24
20 | Cc1cnc2n1S(=O)(=O)c1cc(C(=O)Nc3cccc4nsnc34)c(Cl)cc1S2 | 22.4 | 56.5 | 31.6 | > 100 | > 100 | > 100 | 18 | 37.7 | 19.8 | 42.6 | 16.4 | 32.2 | 27.8 | 85.5 | 27.2 | 60.8 | 12.9 | 29.4 | 17.3 | 34.2
21 | CC(C)(C)C(=O)OCOP(=O)(NCc1ccccc1)C1CCCN(O)C1=O (configuration not stated) | 4.09 | 71.9 | 2.45 | > 100 |  |  | 1.75 | 15.5 | 1.74 | 5.68 | 2.41 | 11.1 | 2.5 | 67.4 | 3.12 | 24.9 | 1.76 | 6.48 | 0.462 | 3.43
22 | Oc1ccc(C=Nc2ccccc2O)cc1 |  | 33 |  | > 100 |  | > 100 |  | > 100 |  | > 100 |  | 90.8 |  | > 100 |  | > 100 |  | > 100 |  | > 100
23 | NS(=O)(=O)OC[C@H]1C[C@@H](Nc2ccnc3cc(-c4cccc(SC(F)(F)F)c4)nn23)[C@H](O)[C@@H]1O | 0.035 | 0.144 | 0.016 | 0.0339 | 0.0271 | 0.0769 | 0.259 | 0.679 | 0.0189 | 0.065 | 0.0214 | 0.173 | 0.176 | 0.36 | 0.0301 | 0.0902 | 0.0199 | 0.0436 |  | 
24 | Cc1c(C)n(CCCN2CCN(C)CC2)c2ccc(Oc3cccc(C(=O)N4CCN(CCc5ccc(F)cc5)CC4)c3)cc12 | 1.78 | 3.33 | 1.66 | 3.28 | 1.91 | 3.62 | 1.86 | 3.45 | 1.78 | 3.24 | 1.59 | 3.22 | 1.67 | 3.06 | 1.75 | 3.31 | 1.59 | 3.06 |  | 
25 | COc1cc(/C=C/c2cc(/C=C/c3ccc(O)c(OC)c3)n(C(=O)c3ccc(Cl)cc3)n2)ccc1O | 0.449 | 10.7 | 2.94 | 11.6 | 1.83 | 4.35 | 2.03 | 20.4 | 2.49 | 12.2 | 2.43 | 16 | 1.03 | 13.7 | 2.8 | 12.1 |  |  | 3.51 | 23.2
26 | Cc1cc2nc(NCCN)n(Cc3ccc(F)c(Cl)c3)c2cc1C | 3.68 | 14 | 12.3 | 25.1 | 16.9 | 30.8 | 3.2 | 10.4 | 2.47 | 6.63 | 11.7 | 27.1 | 11.2 | 24.7 | 13.6 | 28.6 |  |  | 19.8 | 39.7
27 | Cc1nn(CNc2ccccc2C(F)(F)F)c(=S)n1/N=C/c1cccc2cccnc12 | 22.7 | 55 |  |  | > 100 | > 100 | > 100 | > 100 | > 100 | > 100 | 54.9 | > 100 | 95.3 | > 100 | > 100 | > 100 | > 100 | > 100 | 56.2 | > 100
